Read-outs that look alike come from different tables or passages of the source.
Experiments:
[1] = target: T1, full-length beta-Catenin (Uniprot ID P35222) (Homo sapiens, UniProt P35222); test: Fluorescence polarization IC50 (beta-catenin / 5FAM-TCF4 10-53 competition); format: binding
T1 construct: 10 nM full-length beta-Catenin (Uniprot ID P35222)
T1 sequence (P35222 1-781): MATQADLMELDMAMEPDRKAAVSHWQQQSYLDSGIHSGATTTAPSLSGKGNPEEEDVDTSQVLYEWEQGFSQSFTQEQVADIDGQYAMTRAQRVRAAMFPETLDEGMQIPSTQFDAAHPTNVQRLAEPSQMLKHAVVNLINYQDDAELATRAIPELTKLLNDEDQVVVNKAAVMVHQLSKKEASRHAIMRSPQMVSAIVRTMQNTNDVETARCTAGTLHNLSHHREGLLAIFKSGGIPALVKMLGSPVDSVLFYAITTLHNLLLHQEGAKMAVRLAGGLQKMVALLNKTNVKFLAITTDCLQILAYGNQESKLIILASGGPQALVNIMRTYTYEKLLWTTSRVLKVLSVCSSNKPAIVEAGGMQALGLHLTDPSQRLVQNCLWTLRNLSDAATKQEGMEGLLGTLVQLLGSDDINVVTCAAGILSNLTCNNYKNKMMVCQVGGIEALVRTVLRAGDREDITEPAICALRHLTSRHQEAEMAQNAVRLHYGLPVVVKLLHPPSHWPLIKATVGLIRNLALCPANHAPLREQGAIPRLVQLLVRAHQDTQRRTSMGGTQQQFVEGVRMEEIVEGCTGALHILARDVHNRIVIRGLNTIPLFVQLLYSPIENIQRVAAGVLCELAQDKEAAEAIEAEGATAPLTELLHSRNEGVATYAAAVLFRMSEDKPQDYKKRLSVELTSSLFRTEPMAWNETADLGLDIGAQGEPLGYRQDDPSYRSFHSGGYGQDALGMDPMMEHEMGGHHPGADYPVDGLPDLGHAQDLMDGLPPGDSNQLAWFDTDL

[2] = target: T2, full-length B-Catenin (Uniprot ID P35222) (Homo sapiens, UniProt P35222); test: Alphascreen binding assay (beta-catenin / biotin-TCF4 10-53)
T2 construct: 65 nM full-length B-Catenin (Uniprot ID P35222)
T2 sequence (P35222 1-781): T1 sequence (P35222 1-781)
Procedure, shortened: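 AlphaScreen (Ni-chelate beads) competition in 50 mM Tris pH 8.0, 250 mM NaCl with detergents and 0.1% BSA. Peptide titrated 10 uM–5 nM against 65 nM human β-catenin bound to 10 nM biotinylated TCF4 10-53, 15 min then 60 min with beads, both at 20 °C; 1:1 Hill-slope fit.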

CHI Log D procedure = format: physicochemical; details: for CHI Log D: pH 7.4; for chromatographic logD: pH 7.4, CHI Log D
[3] = Table E2-1, read-out: beta-Catenin FP IC50
[4] = fluorescence polarization, beta-catenin, read-out: FP EC50

SMILES	IC50 [1, 3]	IC50 [1, 4]	EC50 [2]	CHI Log D (CHI Log D procedure)	chromatographic logD (CHI Log D procedure)
CC[C@H](C)[C@@H]1NC(=O)[C@H](CC(=O)O)NC(=O)[C@]2(CC=CCCCC3(CCCC=CCCCCCC[C@@](C)(C(=O)N[C@@H](Cc4ccccc4)C(=O)N[C@@H](Cc4c[nH]c5ccccc45)C(=O)N[C@@H](Cc4c[nH]cn4)C(N)=O)NC(=O)[C@H](C(C)C)NC(=O)[C@H](Cc4ccccc4)NC(=O)[C@H](C)NC(=O)[C@H](C)NC(=O)[C@H](CCC(=O)O)NC(=O)[C@H](CC(=O)O)NC3=O)NC1=O)CCCN2C(C)=O (stereo partly drawn) [I-176, Ac-PL3-Asp-Ile-B5-Asp-Glu-Ala-Ala-Phe-Val-S8-Phe-Trp-His-NH2]	1990 nM	1990 nM	549 nM	2.58	–
CC[C@H](C)[C@H](NC(=O)[C@H](CC(=O)O)NC(=O)[C@H](C)NC(C)=O)C(=O)N[C@]1(C)CCN(C)C(=O)OCC=CCCCCC[C@@](C)(C(=O)N[C@@H](Cc2ccccc2)C(=O)N[C@@H](Cc2c[nH]c3ccccc23)C(N)=O)NC(=O)[C@H](CCC(N)=O)NC(=O)[C@H](Cc2ccccc2)NC(=O)[C@H](C)NC(=O)[C@H](C)NC(=O)[C@H](CCC(=O)O)NC(=O)[C@H](CC(=O)O)NC1=O [I-148, Ac-Ala-Asp-Ile-RdN-Asp-Glu-Ala-Ala-Phe-Gln-S7-Phe-Trp-NH2]	2770 nM	–	398 nM	–	1.36
CC[C@H](C)[C@@H]1NC(=O)[C@H](CC(=O)O)NC(=O)[C@]2(CC=CCCCC3(CCCC=CCCCCCC[C@@](C)(C(=O)N[C@@H](Cc4ccccc4)C(=O)N[C@@H](Cc4c[nH]c5ccccc45)C(=O)N[C@@H](CCC(N)=O)C(N)=O)NC(=O)[C@H](CCC(N)=O)NC(=O)[C@H](Cc4ccccc4)NC(=O)[C@H](C)NC(=O)[C@H](C)NC(=O)[C@H](CCC(=O)O)NC(=O)[C@H](CC(=O)O)NC3=O)NC1=O)CCCN2C(C)=O (stereo partly drawn) [I-181, Ac-PL3-Asp-Ile-B5-Asp-Glu-Ala-Ala-Phe-Gln-S8-Phe-Trp-Gln-NH2]	310 nM	310 nM	51 nM	2.213	–
CC(=O)N1CCC[C@]12CC=CCCCC1(CCCC=CCCCCCC[C@@](C)(C(=O)N[C@@H](Cc3ccccc3)C(=O)N[C@@H](Cc3c[nH]c4ccccc34)C(=O)N[C@@H](CCC(N)=O)C(N)=O)NC(=O)[C@H](C(C)C)NC(=O)[C@H](Cc3cccc(C(F)(F)F)c3)NC(=O)[C@H](C)NC(=O)[C@H](C)NC(=O)[C@H](CC(=O)O)NC(=O)[C@H](CC(=O)O)NC1=O)NC(=O)[C@H](C)NC(=O)[C@H](CC(=O)O)NC2=O (stereo partly drawn) [I-238, Ac-PL3-Asp-Ala-B5-Asp-Asp-Ala-Ala-3F3MeF-Val-S8-Phe-Trp-Gln-NH2]	1590 nM	1590 nM	267 nM	2.074	–
CC(=O)N1CCC[C@]12CC=CCCCC1(CCCC=CCCCCCC[C@@](C)(C(=O)N[C@@H](Cc3ccccc3)C(=O)N[C@@H](Cc3c[nH]c4ccccc34)C(=O)N[C@@H](CCC(N)=O)C(N)=O)NC(=O)[C@H](C(C)C)NC(=O)[C@H](Cc3cccc(C)c3)NC(=O)[C@H](C)NC(=O)[C@H](C)NC(=O)[C@H](CCC(=O)O)NC(=O)[C@H](CC(=O)O)NC1=O)NC(=O)[C@H](C)NC(=O)[C@H](CC(=O)O)NC2=O (stereo partly drawn) [I-207, Ac-PL3-Asp-Ala-B5-Asp-Glu-Ala-Ala-3MeF-Val-S8-Phe-Trp-Gln-NH2]	1750 nM	1750 nM	143 nM	2.054	–
CC(=O)N1CCC[C@]12CC=CCCCC1(CCCC=CCCCCCC[C@@](C)(C(=O)N[C@@H](Cc3ccccc3)C(=O)N[C@@H](Cc3c[nH]c4ccccc34)C(=O)N[C@@H](CCC(N)=O)C(N)=O)NC(=O)[C@H](C(C)C)NC(=O)[C@H](Cc3cc(F)cc(F)c3)NC(=O)[C@H](C)NC(=O)[C@H](C)NC(=O)[C@H](CCC(=O)O)NC(=O)[C@H](CC(=O)O)NC1=O)NC(=O)[C@H](C)NC(=O)[C@H](CC(=O)O)NC2=O (stereo partly drawn) [I-219, Ac-PL3-Asp-Ala-B5-Asp-Glu-Ala-Ala-35FF-Val-S8-Phe-Trp-Gln-NH2]	2860 nM	2860 nM	131 nM	2.074	–
CC(=O)N1CCC[C@]12CC=CCCCC1(CCCC=CCCCCCC[C@@](C)(C(=O)N[C@@H](Cc3ccccc3)C(=O)N[C@@H](Cc3c[nH]c4ccccc34)C(=O)NC(C)(C)C(N)=O)NC(=O)[C@H](C(C)C)NC(=O)[C@H](Cc3ccccc3)NC(=O)[C@H](C)NC(=O)[C@H](C)NC(=O)[C@H](CCC(=O)O)NC(=O)[C@H](CC(=O)O)NC1=O)NC(=O)[C@H](C)NC(=O)[C@H](CC(=O)O)NC2=O (stereo partly drawn) [I-134, Ac-PL3-Asp-Ala-B5-Asp-Glu-Ala-Ala-Phe-Val-S8-Phe-Trp-Aib-NH2]	2700 nM	2700 nM	99 nM	2.426	–
CC(=O)N1CCC[C@]12CC=CCCCC1(CCCC=CCCCCCC[C@@](C)(C(=O)N[C@@H](Cc3ccccc3)C(=O)N[C@@H](Cc3c[nH]c4ccccc34)C(=O)N[C@@H](CCC(N)=O)C(N)=O)NC(=O)[C@H](C)NC(=O)[C@H](Cc3ccccc3)NC(=O)[C@H](C)NC(=O)[C@H](C)NC(=O)[C@H](CC(=O)O)NC(=O)[C@H](CC(=O)O)NC1=O)NC(=O)[C@H](C)NC(=O)[C@H](CC(=O)O)NC2=O (stereo partly drawn) [I-287, Ac-PL3-Asp-Ala-B5-Asp-Asp-Ala-Ala-Phe-Ala-S8-Phe-Trp-Gln-NH2]	4950 nM	4950 nM	534 nM	1.875	–
CC[C@H](C)[C@@H]1NC(=O)[C@H](CC(=O)O)NC(=O)[C@]2(CC=CCCCC3(CCCC=CCCCCCC[C@@](C)(C(=O)N[C@@H](Cc4ccccc4)C(=O)N[C@@H](Cc4c[nH]c5ccccc45)C(=O)N[C@@H](CCC(N)=O)C(N)=O)NC(=O)[C@H](CCC(N)=O)NC(=O)[C@H](Cc4ccccc4)NC(=O)[C@H](C)NC(=O)[C@H](C)NC(=O)[C@H](CCC(=O)O)NC(=O)[C@H](CC(=O)O)NC3=O)NC1=O)CCCN2C(C)=O (stereo partly drawn) [I-180, Ac-PL3-Asp-Ile-B5-Asp-Glu-Ala-Ala-Phe-Gln-S8-Phe-Trp-Gln-NH2]	56 nM	–	88 nM	2.193	–
CC(=O)N1CCC[C@]12CC=CCCCC1(CCCC=CCCCCCC[C@@](C)(C(=O)N[C@@H](Cc3ccccc3)C(=O)N[C@@H](Cc3c[nH]c4ccccc34)C(=O)N[C@@H](CCC(N)=O)C(N)=O)NC(=O)[C@H](C(C)C)NC(=O)[C@H](Cc3ccccc3)NC(=O)[C@H](C)NC(=O)[C@H](C)NC(=O)[C@H](CCCC(=O)O)NC(=O)[C@H](CC(=O)O)NC1=O)NC(=O)[C@H](C)NC(=O)[C@H](CC(=O)O)NC2=O (stereo partly drawn) [I-129, Ac-PL3-Asp-Ala-B5-Asp-Aad-Ala-Ala-Phe-Val-S8-Phe-Trp-Gln-NH2]	1980 nM	–	83 nM	–	2.11
CC(=O)N1CCC[C@]12CC=CCCCC1(CCCC=CCCCCCC[C@@](C)(C(=O)N[C@@H](Cc3ccccc3)C(=O)N[C@@H](Cc3c[nH]c4ccccc34)C(=O)N[C@@H](C)C(N)=O)NC(=O)[C@H](CCC(N)=O)NC(=O)[C@H](Cc3ccccc3)NC(=O)[C@H](C)NC(=O)[C@H](C)NC(=O)[C@H](CC(=O)O)NC(=O)[C@H](CC(=O)O)NC1=O)NC(=O)[C@H](C)NC(=O)[C@H](CC(=O)O)NC2=O (stereo partly drawn) [I-316, Ac-PL3-Asp-Ala-B5-Asp-Asp-Ala-Ala-Phe-Gln-S8-Phe-Trp-Ala-NH2]	3980 nM	–	136 nM	–	1.91
CC[C@H](C)[C@@H]1NC(=O)[C@H](CC(=O)O)NC(=O)[C@]2(CC=CCCCC3(CCCC=CCCCCCC[C@@](C)(C(=O)N[C@@H](Cc4ccccc4)C(=O)N[C@@H](Cc4c[nH]c5ccccc45)C(=O)N[C@@H](C)C(N)=O)NC(=O)[C@H](CCC(N)=O)NC(=O)[C@H](Cc4ccccc4)NC(=O)[C@H](C)NC(=O)[C@H](C)NC(=O)[C@H](CCC(=O)O)NC(=O)[C@H](CC(=O)O)NC3=O)NC1=O)CCCN2C(C)=O (stereo partly drawn) [I-194, Ac-PL3-Asp-Ile-B5-Asp-Glu-Ala-Ala-Phe-Gln-S8-Phe-Trp-Ala-NH2]	1010 nM	–	105 nM	–	2.33
CC[C@H](C)[C@@H]1NC(=O)[C@H](CC(=O)O)NC(=O)[C@]2(CC=CCCCC3(CCCC=CCCCCCC[C@@](C)(C(=O)N[C@@H](Cc4ccccc4)C(=O)N[C@@H](Cc4c[nH]c5ccccc45)C(N)=O)NC(=O)[C@H](CCC(N)=O)NC(=O)[C@H](Cc4ccccc4)NC(=O)[C@H](C)NC(=O)[C@H](C)NC(=O)[C@H](CCC(=O)O)NC(=O)[C@H](CC(=O)O)NC3=O)NC1=O)CCCN2C(C)=O (stereo partly drawn) [I-192, Ac-PL3-Asp-Ile-B5-Asp-Glu-Ala-Ala-Phe-Gln-S8-Phe-Trp-NH2]	–	1660 nM	240 nM	2.412	–
